{"source": "patent US6949353B2", "about": "“Capping enzyme of flavivirus and utilization of this protein in a process to test drugs with antiviral properties” (priority 2001, dated 2005)", "key": {"[1]": {"target": "T1, CEF (Capping Enzyme of Flavivirus) (Dengue virus type 2, UniProt P14340)", "T1 construct": "is a thirty-three kDa N-terminal domain of the RNA-dependent RNA polymerase; made in house; host or cells: E. coli (vector pQE30)", "assay": "Competition with radiolabeled GTP for CEF, CEF-GTP complex assayed by UV-crosslinking", "format": "binding, Dengue virus type 2 (New Guinea)", "procedure": "The invention can also be useful in methods for determining the inhibitory power of a biologically active compound acting as a competitive inhibitor of GTP comprising: • a) incubating CEF with radiolabeled GTP, • b) adding selected different concentrations of the biologically active compound, • c) assaying resulting radiolabeled CEF-GTP complex produced from the incubation, • d) quantifying an amount of radiolabeled CEF-GTP complex produced from the assay, • e) comparing the amount to a binding affinity constant of GTP to CEF, and • f) determining the inhibitory power of the biologically active compound.\nMore particularly, the incubating step in the methods of the invention is conducted at about 52 μM of GTP. Selected different concentrations of GTP are about 0 μM, about 10 μM, about 20 μM, about 50 μM, about 100 μM, about 200 μM, about 300 μM, about 500 μM, and about 800 μM. Assaying in the methods of the invention comprises UV-crosslinking of α-^32P-GTP to CEF.\nThe CEF-GTP complex is then assayed using UV-crosslinking as described above. If acyclovir 5′triphosphate competes with radiolabeled GTP for the CEF active-site, acyclovir 5′triphosphate will replace GTP in the active-site."}, "[2]": {"target": "T1, CEF (Capping Enzyme of Flavivirus)", "assay": "Competition with α-32P-GTP for covalent binding to CEF (no UV, gel electrophoresis/autoradiography)", "set-up": "species or system Dengue virus type 2 (New Guinea)", "conditions": "0-1000 μM competitor, 10 min before α-32P-GTP, with magnesium", "procedure": "In the drawings, as noted above, FIGS. 1A and 1B are a pair of photographs of gel electrophoresis. […] 2 μg of CEF was incubated with 50 μM (1 μCi) of either α-^32P-GTP (lane 1, 2, 5, 6) or α-^32P-ATP (lanes 3, 4) in 50 mM Tris pH 7.6, 5 mM DTT in the presence (lane 1, 3-6)) or absence (lane 2) of 5 mM Mg^2+. The sample was cross-linked using UV irradiation (254 nm), boiled for 5 min, and subjected to denaturing gel electrophoresis. Products were analyzed and quantified using photostimulable plates and a FujiImager. Bacteriophage T4 DNA ligase served as a positive control (lane 5). The F25A variant of CEF was purified under the same conditions as those of wild-type CEF. Upper panels show the comassie-blue stained gels, and lower panels the corresponding autoradiographic analysis. […] CEF was incubated during 10 min with increasing concentrations of Ribavirin 5′-triphosphate (0-50-250-500-750-1000 μM, lanes 1- to 6, respectively) before addition of α-^32P-GTP to the reaction mixture and further incubation for 20 min. The mixture was boiled for 5 min, subjected to denaturing gel electrophoresis, and the gel analyzed and quantified as in panel A. Upper panels show the comassie-blue stained gels, and lower panels the corresponding autoradiographic analysis. Ribavirin: Ribavirin 5′-triphosphate; Lig: Bacteriophage T4 DNA ligase. […]"}, "[3]": {"target": "T1, CEF (Capping Enzyme of Flavivirus)", "assay": "UV-crosslinking of α-32P-GTP (or α-32P-ATP) to CEF, direct binding", "set-up": "species or system Dengue virus type 2 (New Guinea)", "procedure": "In the drawings, as noted above, FIGS. 1A and 1B are a pair of photographs of gel electrophoresis. […] 2 μg of CEF was incubated with 50 μM (1 μCi) of either α-^32P-GTP (lane 1, 2, 5, 6) or α-^32P-ATP (lanes 3, 4) in 50 mM Tris pH 7.6, 5 mM DTT in the presence (lane 1, 3-6)) or absence (lane 2) of 5 mM Mg^2+. The sample was cross-linked using UV irradiation (254 nm), boiled for 5 min, and subjected to denaturing gel electrophoresis. Products were analyzed and quantified using photostimulable plates and a FujiImager. Bacteriophage T4 DNA ligase served as a positive control (lane 5). The F25A variant of CEF was purified under the same conditions as those of wild-type CEF. Upper panels show the comassie-blue stained gels, and lower panels the corresponding autoradiographic analysis. […] The mixture was boiled for 5 min, subjected to denaturing gel electrophoresis, and the gel analyzed and quantified as in panel A. Upper panels show the comassie-blue stained gels, and lower panels the corresponding autoradiographic analysis. […]\nThe binding affinity constant of GTP to CEF can be easily determined using a fixed concentration of CEF and increasing concentrations of radiolabeled GTP as described in FIG. 1A. […]"}}, "data": [{"smiles": "Nc1nc2c(ncn2COCCOP(=O)(O)OP(=O)(O)OP(=O)(O)O)c(=O)[nH]1", "note": "[acyclovir 5′-triphosphate]", "values": [{"measurement": "Kd", "setting": "[1]; CEF first incubated with about 52 μM GTP, increasing competitor, read-out: relative binding affinity constant for binding to CEF", "result": "~79", "unit": "µM"}, {"measurement": "inhibition of the CEF enzyme (in words)", "setting": "[1]; CEF-acyclovir 5′-triphosphate binding assay", "result": "good inhibitor of the CEF enzyme"}]}, {"smiles": "NC(=O)c1ncn([C@@H]2O[C@H](COP(=O)(O)OP(=O)(O)OP(=O)(O)O)[C@@H](O)[C@H]2O)n1", "note": "[Ribavirin 5′-triphosphate]", "values": [{"measurement": "effect on GTP-binding to CEF", "setting": "[2]", "result": "able to decrease GTP-binding to CEP"}]}, {"smiles": "Nc1nc2c(ncn2[C@@H]2O[C@H](COP(=O)(O)OP(=O)(O)OP(=O)(O)O)[C@@H](O)[C@H]2O)c(=O)[nH]1", "note": "[GTP]", "values": [{"measurement": "Kd", "setting": "[3]; fixed CEF, increasing radiolabeled GTP, hyperbolic saturation, read-out: binding affinity constant Kd of GTP to CEF", "result": 52, "unit": "µM"}]}, {"smiles": "Nc1ncnc2c1ncn2[C@@H]1O[C@H](COP(=O)(O)OP(=O)(O)OP(=O)(O)O)[C@@H](O)[C@H]1O", "note": "[α-^32P-ATP]", "values": [{"measurement": "labeling of CEF by radiolabeled nucleotide after UV irradiation", "setting": "[3]; 50 μM nucleotide, 2 μg CEF, UV 254 nm", "result": "unable to label CEF significantly"}]}]}
